# Like-named read-outs stand apart in the source and are kept apart here.
# Key:
# GSK-3α/β = GSK-3α/β kinase assay (GS-1 peptide, 15 μM ATP); assay type: biochemical, porcine
# CDK5/p25 = CDK5/p25 (Homo sapiens, UniProt Q00535); assay: CDK5/p25 kinase assay (histone H1, 15 μM ATP); assay type: biochemical, mammalian; conditions: read-out: IC50 CDK5/p25
# [1] = test system: p27^KIP1 in 5L (AhR +/+) cells; assay: p27KIP1 expression by Western blotting, 5L cells; assay type: cell-based, mouse; conditions: 10 μM indirubins or 0.1 μM TCDD, 24 hr
# [2] = test system: 5L (AhR +/+) hepatoma cells; assay: FACS cell cycle analysis, 5L cells; assay type: cell-based, mouse; conditions: 10 μM indirubins or 100 nM TCDD, 24 hr
# [3] = test system: 5L (AhR +/+) hepatoma cells; assay: Cell viability MTT assay, 5L cells; assay type: cell-based, mouse; conditions: range of concentrations, 24 and 48 hr
# [4] = test system: BP8 (AhR −/−) hepatoma cells; assay: FACS cell cycle analysis, BP8 cells; assay type: cell-based, mouse; conditions: 10 μM indirubins or 100 nM TCDD, 24 hr
# Protocol: Flow cytometry analysis (Coulter EPIX XL2, Beckman, Calif., USA) of cellular DNA content was performed on ethanol-fixed cell suspensions after ribonuclease A III treatment (Sigma) and propidium iodide (Sigma) staining, as previously described (French et al. (1985) Cytometry 6: 47-53). Percentages of cells in G0/G1, S and G2/M phases of cell cycle were then calculated on the basis of DNA distribution histograms provided by the software manufacturer.
# Both 5L and BP8 cell lines were treated with 10 μM IO, MeIO, BIO, MeBIO or 100 nM TCDD for 24 hr.
# [5] = test system: BP8 (AhR −/−) hepatoma cells; assay: Cell proliferation by direct counting, BP8 cells; assay type: cell-based, mouse; conditions: 20 μM, 24 and 48 hr
# Protocol: (§1) The protocol followed was similar to those previously described in Weiss C, Kolluri S K, Kiefer F and Göttlicher M. (1996). Exp. Cell Res., 226, 154-163, and Kolluri S K, Weiss C, Koff A and Gbttlicher M. (1999). Genes & Dev., 13, 1742-1753. The mouse 5L hepatoma cell line (AhR +/+) and BP8 (an AhR −/− subclone) were kindly provided by Dr. M. Gottlicher (Forschungszentrun Karlsruhe, Institute of Genetics, 76021 Karlsruhe, Germany). Cells were cultured in Dulbecco's modified Eagle medium (DMEM) (Biowhittaker) supplemented with 2 mM L-glutamine (Eurobio), 10% fetal calf serum (FCS), and gentamycin (Gibco BRL) at 37° C. in an atmosphere of 7% CO2. […] Control experiments were carried out using appropriate dilutions of DMSO.
# (§2) The effects of IO and MeOO (20 μM) on the proliferation rate of 5L and BP8 cell lines was determined by counting directly the number of live cells after 24 and 48 hr of exposure to the indirubins (FIG. 17).
# AhR [6] = target: T1, AhR (Mus musculus, UniProt P30561); conditions: read-out: EC50 AhR (hepatoma cell line); Table 4; EGFP at 24 hours
# T1 sequence (P30561 1-848): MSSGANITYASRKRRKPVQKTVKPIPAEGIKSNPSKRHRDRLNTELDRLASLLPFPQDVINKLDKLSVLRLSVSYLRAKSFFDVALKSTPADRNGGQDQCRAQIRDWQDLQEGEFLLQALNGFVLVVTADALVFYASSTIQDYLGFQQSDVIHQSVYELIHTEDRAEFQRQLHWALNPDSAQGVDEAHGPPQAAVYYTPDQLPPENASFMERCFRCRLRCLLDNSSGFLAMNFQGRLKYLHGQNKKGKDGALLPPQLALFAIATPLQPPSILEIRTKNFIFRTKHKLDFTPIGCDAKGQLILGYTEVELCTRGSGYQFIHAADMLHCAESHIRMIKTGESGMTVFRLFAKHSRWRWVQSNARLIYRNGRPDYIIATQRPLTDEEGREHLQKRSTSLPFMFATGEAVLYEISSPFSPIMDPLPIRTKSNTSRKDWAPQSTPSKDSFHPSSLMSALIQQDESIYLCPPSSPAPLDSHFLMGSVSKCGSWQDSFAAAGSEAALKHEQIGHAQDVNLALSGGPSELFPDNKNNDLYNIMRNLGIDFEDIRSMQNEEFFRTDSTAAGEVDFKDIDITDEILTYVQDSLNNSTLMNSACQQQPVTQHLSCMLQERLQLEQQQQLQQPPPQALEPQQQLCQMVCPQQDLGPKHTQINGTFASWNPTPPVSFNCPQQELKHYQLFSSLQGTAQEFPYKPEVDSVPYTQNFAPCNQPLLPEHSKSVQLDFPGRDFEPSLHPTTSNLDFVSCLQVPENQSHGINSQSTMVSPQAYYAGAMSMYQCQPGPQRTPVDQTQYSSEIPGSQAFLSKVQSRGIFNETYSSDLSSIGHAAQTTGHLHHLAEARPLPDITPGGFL
# CDK1/cyclin B = CDK1/cyclin B kinase assay (histone H1, 15 μM ATP); assay type: biochemical, starfish (Marthasterias glacialis)
# AhR [7] = target: AhR (Homo sapiens, UniProt P35869)
# [8] = test system: 5L (AhR +/+) hepatoma cells; assay: Cell proliferation by direct counting, 5L cells; assay type: cell-based, mouse; conditions: 20 μM, 24 and 48 hr
# Protocol: as §1, §2
# [9] = test system: GSK-3α (Tyr276) / GSK-3β (Tyr216); assay: Tyrosine phosphorylation of GSK-3 in SH-SY5Y cells (Western blot); assay type: cell-based, human; conditions: 1 μM, 12 hr
# From the text: GSK-3α and GSK-3β activity is enhanced by the phosphorylation of a specific tyrosine residue (Tyr276 and Tyr216, respectively) (Hughes et al. (1993) EMBO J. 12: 803-808; Dajani et al. (2003) EMBO J. 22: 494-501). The tyrosine kinase responsible for this phosphorylation in mammals is unknown, but there is some evidence that it indirectly depends on GSK-3 activity (Bhat et al. (2000) Proc. Natl. Acad. Sci. U.S.A. 97: 11074-11079; Shaw et al. (1997) FEBS Lett. 416: 307-311). […] SH-SY5Y cells were exposed to IO, MeIO, BIO and MeBIO for 12 hr and the phosphorylation of Tyr276 (GSK-3α) and Tyr216 (GSK-3β) was estimated by Western blotting with phospho-specific antibodies. […] This was accompanied by an increased level in total GSK-3β, total β-catenin, and dephospho-&catenin.
# [10] = test system: BP8 (AhR −/−) hepatoma cells; assay: Cell viability MTT assay, BP8 cells; assay type: cell-based, mouse; conditions: range of concentrations, 24 and 48 hr
# Chain of CDK5/p25 (Q00535 whole entry, species assumed): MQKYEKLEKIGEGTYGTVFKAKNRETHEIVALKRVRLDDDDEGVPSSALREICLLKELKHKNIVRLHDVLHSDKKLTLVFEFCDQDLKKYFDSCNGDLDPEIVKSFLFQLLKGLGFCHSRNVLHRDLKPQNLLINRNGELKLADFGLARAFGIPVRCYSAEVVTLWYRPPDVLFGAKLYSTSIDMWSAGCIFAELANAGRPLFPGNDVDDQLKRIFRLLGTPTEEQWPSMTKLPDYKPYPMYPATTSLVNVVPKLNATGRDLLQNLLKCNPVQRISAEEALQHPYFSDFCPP
# Chain of CDK5/p25 (Q15078 99-307 partner limits assumed, species assumed): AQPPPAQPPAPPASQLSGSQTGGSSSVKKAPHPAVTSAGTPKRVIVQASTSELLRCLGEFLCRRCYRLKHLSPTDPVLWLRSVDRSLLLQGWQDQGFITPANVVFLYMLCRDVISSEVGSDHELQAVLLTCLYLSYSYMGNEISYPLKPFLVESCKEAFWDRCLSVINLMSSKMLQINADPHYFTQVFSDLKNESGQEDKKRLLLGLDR
# Chain of AhR (Homo sapiens, UniProt P35869) (P35869 11-848): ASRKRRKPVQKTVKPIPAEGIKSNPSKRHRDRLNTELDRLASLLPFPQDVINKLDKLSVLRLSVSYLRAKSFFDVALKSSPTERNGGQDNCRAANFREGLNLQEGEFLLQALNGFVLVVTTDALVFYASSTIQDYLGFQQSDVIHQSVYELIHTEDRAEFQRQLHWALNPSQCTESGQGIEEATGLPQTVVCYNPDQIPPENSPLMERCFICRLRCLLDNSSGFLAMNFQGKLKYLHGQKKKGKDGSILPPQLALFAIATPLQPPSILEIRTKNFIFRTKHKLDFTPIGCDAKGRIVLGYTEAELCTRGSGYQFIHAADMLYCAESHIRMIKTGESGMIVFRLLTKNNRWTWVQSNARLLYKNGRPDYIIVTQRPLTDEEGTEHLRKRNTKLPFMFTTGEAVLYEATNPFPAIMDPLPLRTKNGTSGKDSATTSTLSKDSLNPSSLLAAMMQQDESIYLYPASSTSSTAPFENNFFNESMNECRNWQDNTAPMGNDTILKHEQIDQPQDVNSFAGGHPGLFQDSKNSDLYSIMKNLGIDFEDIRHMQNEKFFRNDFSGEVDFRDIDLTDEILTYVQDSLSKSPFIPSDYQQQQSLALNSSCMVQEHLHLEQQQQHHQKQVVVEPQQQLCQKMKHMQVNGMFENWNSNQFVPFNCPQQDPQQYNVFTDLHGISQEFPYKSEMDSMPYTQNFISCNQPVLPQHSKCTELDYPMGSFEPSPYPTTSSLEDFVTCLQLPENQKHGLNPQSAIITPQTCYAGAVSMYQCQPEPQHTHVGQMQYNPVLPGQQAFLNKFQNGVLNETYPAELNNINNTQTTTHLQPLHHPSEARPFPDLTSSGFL
# Chain of AhR (Homo sapiens, UniProt P35869) (P27540 whole entry partner): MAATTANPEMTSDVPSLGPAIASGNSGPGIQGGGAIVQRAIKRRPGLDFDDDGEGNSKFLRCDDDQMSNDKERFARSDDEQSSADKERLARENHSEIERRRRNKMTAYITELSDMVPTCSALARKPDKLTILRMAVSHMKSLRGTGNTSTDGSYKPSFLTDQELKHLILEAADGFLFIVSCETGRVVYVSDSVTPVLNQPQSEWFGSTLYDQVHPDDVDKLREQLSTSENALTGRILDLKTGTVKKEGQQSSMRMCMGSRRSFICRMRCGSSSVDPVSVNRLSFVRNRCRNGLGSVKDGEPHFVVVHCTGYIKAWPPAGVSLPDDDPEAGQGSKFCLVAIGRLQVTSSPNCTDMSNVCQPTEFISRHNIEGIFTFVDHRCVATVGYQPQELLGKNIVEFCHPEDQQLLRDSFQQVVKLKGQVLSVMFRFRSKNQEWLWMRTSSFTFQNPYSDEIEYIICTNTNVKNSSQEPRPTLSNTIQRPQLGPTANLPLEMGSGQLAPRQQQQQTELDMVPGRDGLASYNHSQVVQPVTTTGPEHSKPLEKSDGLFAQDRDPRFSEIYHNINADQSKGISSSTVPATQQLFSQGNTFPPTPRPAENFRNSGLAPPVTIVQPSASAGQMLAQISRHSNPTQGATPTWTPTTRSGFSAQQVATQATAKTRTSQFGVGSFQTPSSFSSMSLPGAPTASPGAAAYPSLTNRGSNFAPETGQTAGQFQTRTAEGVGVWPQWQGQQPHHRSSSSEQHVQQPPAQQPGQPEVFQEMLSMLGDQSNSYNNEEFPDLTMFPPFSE
smiles,measurement,setting,value
"CN1C(=O)C(=C2Nc3ccccc3C2=NO)c2ccccc21 [13d, 1-Methylindirubin-3′-oxime]",IC50,"GSK-3α/β; Table 1, read-out: IC50 GSK-3 α/β",> 100 µM
same,IC50,"GSK-3α/β; Table 4, read-out: IC50 GSK-3",> 100 µM
same,IC50,"GSK-3α/β; Table 5, read-out: IC50 GSK-3α/β",> 100 µM
same,IC50,CDK5/p25; Table 1,> 100 µM
same,IC50,CDK5/p25; Table 5,> 100 µM
same,p27^KIP1 expression in 5L cells,[1],very effective p27^KIP1 inducers
same,accumulation of 5L cells in G1 phase,[2],very striking accumulation
same,survival of 5L cells (MTT),[3],apparently not affected
same,accumulation of BP8 cells in G1 phase,[4],but not of AhR −/− cells (BP8)
same,proliferation rate of BP8 cells,[5],did not effect the proliferation
same,EC50,AhR [6],0.129 µM
same,IC50,"CDK1/cyclin B; Table 1, read-out: IC50 CDK1/cyclin B",73 µM
same,IC50,"CDK1/cyclin B; Table 4, read-out: IC50 CDK1/cycin B",73 µM
same,IC50,"CDK1/cyclin B; Table 5, read-out: IC50 CDK1/cyclin B",73 µM
same,EC50,AhR [7],0.008 µM
same,proliferation rate of 5L cells,[8],reduced the rate of proliferation only in 5L cells
same,level of tyrosine phosphorylation of both GSK-3 isoforms,[9],None of these changes were observed
same,survival of BP8 cells (MTT),[10],apparently not affected

# Reference: patent US20070276025A1, “Indirubin-Type Compounds, Compositions, and Methods for Their Use” (priority 2003, published 2007)
